# Test results taken from US11926620B1, “1-Cyclopropyl-6-fluoro-4-oxo-7-(4-((2-thioxobenzo[d]oxazol-3(2H)-yl)methyl)piperazin-1-yl)-1,4-dihydroquinoline-3-carboxylic acid as an antimicrobial and anticancer compound” (KING FAISAL UNIVERSITY, priority 2023, dated 2024).
# Key:
# [1] = tested on: human prostate cancer cells (PC3); assay: Cytotoxicity by SRB assay, PC3; assay type: cell-based; conditions: 0.01 μM to 100 μM for 72 h, result in words
# Method: (§1) The human prostate cancer cells (PC3) and human osteosarcoma cells (MG-63) were obtained from Nawah Scientific Inc. (Mokatam, Cairo, Egypt) and cultured in DMEM (Dulbecco's modified eagle's medium), Gibco, USA, supplemented with fetal bovine serum (FBS) at a concentration of 10% and 100 U/mL of penicillin and streptomycin (PS). The Cells were incubated at 37° C. in a humidified environment that contained 5% CO2. Cells were seeded in 96-well plates as aliquots of 100 μL cell suspension and incubated in a complete media for 24 h. afterward, cells were treated with 1-Cyclopropyl-6-fluoro-4-oxo-7-(4-((2-thioxobenzo[d]oxazol-3(2H)-yl)methyl)piperazin-1-yl)-1,4-dihydroquinoline-3-carboxylic acid at diverse concentrations ranging from 0.01 μM to 100 μM for 72 h. Then, cells were fixed at 4° C. for one hour with 150 μL of 10% trichloroacetic acid (TCA). […] Then, 150 μL of Tris pH 10.5 (10 mM) was added, and the absorbance was measured at 540 nm using a BMG LABTECH®-FLUOstar Omega microplate reader (Ortenberg, Germany). Half maximal inhibitory concentrations (IC50) values were calculated for each experiment using GraphPad Prism 6 software. […] The inhibition was calculated using the following equation: Inhibition %=100−Average Viability
# Staphylococcus aureus = assay: Agar plate disc-diffusion, Staphylococcus aureus; assay type: cell-based; conditions: gram positive Staphylococcus aureus; disc 10 μL of 10 mg/mL in DMSO, 37° C., 48 h; result in words
# Method: (§2) The antimicrobial properties of the synthesized compounds were studied by the method of agar plate disc-diffusion. Sterilized filter papers (6 mm in diameter) were wetted with 10 μL of a solution of each compound to be tested, containing 10 mg/mL in DMSO, and the discs were allowed to air dry. The discs were then placed onto the surface of agar plates (nutrient agar for bacteria and Sabouraud's dextrose agar for fungi) seeded with the test organism. Each plate contained 15 mL of the agar medium, previously seeded with 0.2 mL of the broth culture of each organism pregrown for 18 h. The plates were incubated at 37° C. for 48 h, and 72 h for fungi. The inhibition zones were measured in mm. Discs impregnated with DMSO were used as a control, and its inhibition zone was subtracted from the tested compound actual inhibition zone.
# Bacillus cereus = assay: Agar plate disc-diffusion, Bacillus cereus; assay type: cell-based; conditions: gram positive Bacillus cereus; disc 10 μL of 10 mg/mL in DMSO, 37° C., 48 h; result in words
# Method: as §2
# Pseudomonas aeruginosa = assay: Agar plate disc-diffusion, Pseudomonas aeruginosa; assay type: cell-based; conditions: gram-negative Pseudomonas aeruginosa; disc 10 μL of 10 mg/mL in DMSO, 37° C., 48 h; result in words
# Method: as §2
# [2] = tested on: human osteosarcoma cells (MG-63); assay: Cytotoxicity by SRB assay, MG-63; assay type: cell-based; conditions: MG-63 cells, 0.01 μM to 100 μM for 72 h, result in words
# Method: as §1
# [3] = tested on: Chrysosporium keratinophilum; assay: Agar plate disc-diffusion, Chrysosporium keratinophilum; assay type: cell-based; conditions: disc 10 μL of 10 mg/mL in DMSO, 72 h, result in words
# Method: as §2
# Aspergillus flavus = assay: Agar plate disc-diffusion, Aspergillus flavus; assay type: cell-based; conditions: disc 10 μL of 10 mg/mL in DMSO, 72 h, result in words
# Method: as §2
# Escherichia coli = assay: Agar plate disc-diffusion, Escherichia coli; assay type: cell-based; conditions: gram-negative Escherichia coli; disc 10 μL of 10 mg/mL in DMSO, 37° C., 48 h; result in words
# Method: as §2
smiles,measurement,setting,value
"O=C(O)c1cn(C2CC2)c2cc(N3CCN(Cn4c(=S)oc5ccccc54)CC3)c(F)cc2c1=O [1-cyclopropyl-6-fluoro-4-oxo-7-(4-((2-thioxobenzo[d]oxazol-3(2H)-yl)methyl)piperazin-1-yl)-1,4-dihydroquinoline-3-carboxylic acid]",antiproliferative activity,[1],excellent antiproliferative activities
same,antibacterial activity,Staphylococcus aureus,excellent antimicrobials activities
same,antibacterial activity,Bacillus cereus,excellent antimicrobials activities
same,antibacterial activity,Pseudomonas aeruginosa,excellent antimicrobials activities
same,antiproliferative activity,[2],excellent antiproliferative activities
same,antifungal activity,[3],excellent antimicrobials activities
same,antifungal activity,Aspergillus flavus,excellent antimicrobials activities
same,antibacterial activity,Escherichia coli,excellent antimicrobials activities
same,melting point,,187 to 189 °C
